Data published in publication PMC11480411, “Mucosal sugars delineate pyrazine vs pyrazinone autoinducer signaling in Klebsiella oxytoca” (Nature Communications, 2024).
Where “and” joins values, the source holds several entries; their conditions need not be identical. Equal entries are not always repeated.

Legend:
[1] = tested on: leup operon (leupeptin BGC) promoter in K. oxytoca ATCC 8724; test: GFP-based transcriptional reporter for the leup operon; assay type: cell-based, Klebsiella oxytoca; settings: carbohydrate screen, M9 + casamino acid + 0.4% indicated sugar, 30 °C, 24 h; for GFP fluorescence, GFP Strain + Media: leup GFP reporter strain; for GFP fluorescence, WT + Media: wildtype K. oxytoca without reporter (background)
Text: We previously examined a panel of 84 clinical K. oxytoca isolates (including recently renamed Klebsiella michiganensis isolates) for the presence of either the leup operon or npsB, an NRPS of the tilimycin/tilivalline gene cluster. […] While the roles of tilivalline and tilimycin in hemorrhagic colitis are well studied[8],[9], the operon for leupeptin biosynthesis is “silent” in K. oxytoca under typical laboratory culture conditions (i.e., leupeptin production is undetectable). Therefore, our study commenced by exploring growth conditions required to trigger leupeptin biosynthesis in K. oxytoca. To achieve this, we generated a green fluorescent protein (GFP)-based reporter system to monitor leup transcription in K. oxytoca ATCC 8724 (recently renamed as Klebsiella michiganensis (ATCC 8724), Fig. 1a). We utilized λ-red recombineering techniques[38] to replace the first biosynthetic gene (leupA) of the leupeptin BGC with a GFP-spectinomycin resistance cassette. […] Consequently, conditions that elicit transcription of the leupeptin BGC can be monitored by GFP fluorescence intensity.
5 mL of the leupeptin reporter strain was cultured aerobically in 10 g/L of LB (Becton Dickinson), yeast extract, GAM (HiMedia Laboratories), horse liver extract (HiMedia Laboratories), malt extract (VWR), meat extract (HiMedia Laboratories), YPD (Dot Scienticifc), brain heart infusion (Becton Dickinson), porcine mucin (Sigma-Aldrich, M1778), clostridial (Becton Dickinson), TSB (VWR), or casamino acid supplemented (5 g/L, VWR) M9 minimal salts (MP Biomedicals) at 30 °C for 24 h at 250 rpm. Cultures were lysed via sonication, centrifuged, and 150 µL of the supernatants were aliquoted into black well clear bottom 96 well plates. GFP fluorescence measurements were performed on a BioTek Synergy H1 plate reader with an excitation wavelength of 488 nm and an emission wavelength of 525 nm. For the carbohydrate screen, the leupeptin reporter strain was cultured in M9 minimal medium (MPbio) supplemented with casamino acid (5 g/L, VWR) and 0.4% indicated sugar aerobically at 30 °C for 24 h at 250 rpm.

[2] = target: T1, histamine receptor H4 (HRH4) (Homo sapiens, UniProt Q9H3N8); test: PRESTO-Tango GPCR screen and dose-response; assay type: cell-based; settings: for HRH4 dose-response raw reporter signal (Fig. 5b source data): replicate wells
T1 construct: expressed in transfected cells; host or cells: HTLA cells (HEK293 line stably expressing β-arrestin-TEV and tTA-Luciferase)
Procedure: (§1) The PRESTO-Tango analyses were performed as previously published. Briefly, HTLA cells, a HEK293 cell line that stably expresses β-arrestin-TEV and tTA-Luciferase (a kind gift from Gilad Barnea, Brown University), were plated in 96-well tissue culture plates (Eppendorf) in DMEM containing 10% FBS and 1% Penicillin/Streptomycin. One day after plating (after reaching approximately 90% confluence), 200 ng per well GPCR-Tango plasmids[37] in 20 μL DMEM were individually mixed with 400 ng polyethylenimine (Polysciences) in an equal volume of DMEM and incubated for 20 min at room temperature before adding the transfection mixture to the HTLA cells. 16-24 h after transfection, medium was replaced with 180 μL fresh DMEM containing 1% Penicillin/Streptomycin and 10 mM HEPES and 20 μL of 3 or 3-Homo to reach a final concentration of 100 μM. Supernatants were aspirated 20 h after stimulation and 50 μl per well of Bright-Glo solution (Promega) diluted 20-fold with PBS containing 20 mM HEPES was added into each well. After 15 min incubation at room temperature, luminescence was quantified using a Spectramax i3x microplate reader (Molecular Devices). Activation fold for each sample was calculated by dividing relative luminescence units (RLU) for each condition by RLUs from PBS control. Dose response curves of each chemical were performed in a similar way with varying the ligand concentration from 10^−4 M to 10^−15 M.

[3] = target: T2, HRH2 (Homo sapiens, UniProt P25021); test: PRESTO-Tango GPCR screen and dose-response; assay type: cell-based; settings: for HRH2 dose-response raw reporter signal (Fig. 5b source data): replicate wells
T2 construct: expressed in transfected cells; host or cells: HTLA cells (HEK293 line stably expressing β-arrestin-TEV and tTA-Luciferase)
Procedure: as §1

[4] = target: T3, HRH3 (Homo sapiens, UniProt Q9Y5N1); test: PRESTO-Tango GPCR screen and dose-response; assay type: cell-based; settings: for HRH3 dose-response raw reporter signal (Fig. 5b source data): replicate wells
T3 construct: expressed in transfected cells; host or cells: HTLA cells (HEK293 line stably expressing β-arrestin-TEV and tTA-Luciferase)
Procedure: as §1

[5] = target: T4, HRH1 (Homo sapiens, UniProt P35367); test: PRESTO-Tango GPCR screen and dose-response; assay type: cell-based; settings: for HRH1 dose-response raw reporter signal (Fig. 5b source data): replicate wells
T4 construct: expressed in transfected cells; host or cells: HTLA cells (HEK293 line stably expressing β-arrestin-TEV and tTA-Luciferase)
Procedure: as §1

[6] = tested on: ∆pyr K. oxytoca; test: RNA-seq of compound-supplemented ∆pyr K. oxytoca; assay type: cell-based, Klebsiella oxytoca ATCC 8724; settings: 10 µM
Procedure: A ∆pyr K. oxytoca glycerol stock was streaked onto an LB-Agar plate supplemented with spectinomycin (50 µg/mL) and incubated aerobically at 30°C for 24 h in a stationary incubator. Single colonies were grown for 24 h aerobically in 5 mL of M9 minimal medium supplemented with 5 g/L casamino acids and 0.4% D-galactose at 30 °C and 250 rpm. Each ∆pyr K. oxytoca overnight culture was diluted 1:1000 into fresh medium (5 mL) and incubated aerobically at 30 °C and 250 rpm to mid-exponential growth (OD600 = 0.8). These conditions abrogated both detectable pyrazine and pyrazinone production. At this point, 10 µM of compound in DMSO, were added to the cultures; an equal volume of DMSO was added to cultures without compound as a solvent vehicle control. The cultures were incubated under aerobic conditions with the compounds for one hour at 30 °C and at 250 rpm. After incubation, the cultures were centrifuged, the supernatants were decanted, and the cell pellets were quickly resuspended in 5 mL of Bacterial RNAProtect (Qiagen). The samples were centrifuged again, and the pellets were frozen on dry ice and stored at −80 °C until RNA extraction. The processed cell pellets were thawed on ice and resuspended in 200 µL of lysis buffer (10 mM Tris, 1 mM EDTA, 5 mg/mL lysozyme, 12.5 µg/mL proteinase K [pH 8.0]) and incubated at room temperature for 10 min. The RNA was extracted via the Qiagen RNeasy Mini kit, treated with TURBO DNase in a total volume of 100 µL at room temperature for 30 min, and extracted again using an RNeasy Mini kit. RNA-seq analysis was conducted by the Yale Center for Genome Analysis. Sequences were aligned to the K. oxytoca ATCC 8724 genome (NC_016612.1). Differential expression analysis was performed through DESeq2 and pathway enrichment analysis was performed through the Funage-Pro web-based platform.

T2 sequence (P25021 whole entry): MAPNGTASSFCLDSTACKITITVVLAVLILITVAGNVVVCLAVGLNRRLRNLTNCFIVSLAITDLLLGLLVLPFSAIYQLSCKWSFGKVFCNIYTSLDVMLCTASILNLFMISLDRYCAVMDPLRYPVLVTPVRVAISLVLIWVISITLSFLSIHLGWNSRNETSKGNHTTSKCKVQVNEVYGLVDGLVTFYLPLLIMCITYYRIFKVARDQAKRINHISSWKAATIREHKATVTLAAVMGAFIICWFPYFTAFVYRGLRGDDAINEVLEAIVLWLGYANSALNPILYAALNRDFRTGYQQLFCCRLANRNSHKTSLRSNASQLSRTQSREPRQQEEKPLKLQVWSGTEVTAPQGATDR
T3 sequence (Q9Y5N1 whole entry): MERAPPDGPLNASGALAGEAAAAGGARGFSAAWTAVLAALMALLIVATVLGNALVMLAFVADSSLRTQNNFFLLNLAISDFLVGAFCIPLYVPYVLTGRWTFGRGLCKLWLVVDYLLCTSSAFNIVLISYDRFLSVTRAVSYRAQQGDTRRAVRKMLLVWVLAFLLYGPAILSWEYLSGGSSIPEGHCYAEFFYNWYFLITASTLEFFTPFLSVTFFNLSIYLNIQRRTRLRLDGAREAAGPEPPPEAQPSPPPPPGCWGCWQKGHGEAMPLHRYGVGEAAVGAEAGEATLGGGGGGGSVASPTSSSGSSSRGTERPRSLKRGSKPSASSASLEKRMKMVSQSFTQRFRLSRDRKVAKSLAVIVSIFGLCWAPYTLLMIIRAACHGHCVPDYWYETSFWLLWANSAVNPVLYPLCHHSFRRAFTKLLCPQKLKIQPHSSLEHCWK
T1 sequence (Q9H3N8 whole entry): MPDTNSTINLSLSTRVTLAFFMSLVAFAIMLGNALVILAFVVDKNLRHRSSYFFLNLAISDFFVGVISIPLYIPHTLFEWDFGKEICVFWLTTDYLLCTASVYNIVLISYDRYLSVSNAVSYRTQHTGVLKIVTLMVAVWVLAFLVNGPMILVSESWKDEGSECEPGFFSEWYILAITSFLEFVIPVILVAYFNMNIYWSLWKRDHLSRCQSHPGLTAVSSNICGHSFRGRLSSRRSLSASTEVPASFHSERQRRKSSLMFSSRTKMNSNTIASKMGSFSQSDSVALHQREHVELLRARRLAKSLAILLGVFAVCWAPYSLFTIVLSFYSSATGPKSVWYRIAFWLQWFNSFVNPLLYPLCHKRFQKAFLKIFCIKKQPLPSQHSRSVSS
T4 sequence (P35367 whole entry): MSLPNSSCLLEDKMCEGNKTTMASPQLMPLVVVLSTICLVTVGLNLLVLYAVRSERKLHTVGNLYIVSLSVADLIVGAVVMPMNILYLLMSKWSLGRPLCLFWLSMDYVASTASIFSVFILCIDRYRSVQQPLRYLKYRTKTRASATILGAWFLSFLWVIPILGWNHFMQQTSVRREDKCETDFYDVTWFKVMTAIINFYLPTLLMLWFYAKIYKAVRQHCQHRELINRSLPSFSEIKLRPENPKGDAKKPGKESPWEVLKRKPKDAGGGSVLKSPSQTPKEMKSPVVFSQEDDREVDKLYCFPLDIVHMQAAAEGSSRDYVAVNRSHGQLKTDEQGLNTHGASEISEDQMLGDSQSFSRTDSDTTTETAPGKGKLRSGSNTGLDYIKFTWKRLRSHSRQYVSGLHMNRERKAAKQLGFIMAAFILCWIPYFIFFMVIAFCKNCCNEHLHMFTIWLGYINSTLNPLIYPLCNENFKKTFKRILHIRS

N[C@H]1C(O)O[C@H](CO)[C@@H](O)[C@@H]1O (stereo partly drawn) [Glucosamine]
GFP fluorescence, GFP Strain + Media [1]: 9974 RFU | GFP fluorescence, WT + Media [1]: 5479 RFU

OC[C@H]1OC(O)[C@H](O)[C@@H](O)[C@@H]1O (stereo partly drawn) [Glucose]
GFP fluorescence, GFP Strain + Media [1]: 9593 RFU | GFP fluorescence, WT + Media [1]: 8596 RFU

CC(C)S[C@@H]1O[C@H](CO)[C@H](O)[C@H](O)[C@H]1O [IPTG]
GFP fluorescence, GFP Strain + Media [1]: 9918 RFU | GFP fluorescence, WT + Media [1]: 8873 RFU

OC[C@@H](O)[C@@H](O)[C@H](O)[C@@H](O)CO [Sorbital]
GFP fluorescence, GFP Strain + Media [1]: 10051 RFU | GFP fluorescence, WT + Media [1]: 6226 RFU

O=C[C@H](O)[C@@H](O)[C@H](O)CO [Xylose]
GFP fluorescence, GFP Strain + Media [1]: 9892 RFU | GFP fluorescence, WT + Media [1]: 5418 RFU

O=C(O)CCc1nc(Cc2ccc(O)cc2)c(CCC(=O)O)nc1Cc1ccc(O)cc1 [compound 6]
HRH4 dose-response raw reporter signal (Fig. 5b source data) ([2]; Log(10)Conc (M) -5): 295 and 312 | HRH4 dose-response raw reporter signal (Fig. 5b source data) ([2]; Log(10)Conc (M) -6): 348 and 448 | HRH4 dose-response raw reporter signal (Fig. 5b source data) ([2]; Log(10)Conc (M) -7): 304 and 348 | HRH4 dose-response raw reporter signal (Fig. 5b source data) ([2]; Log(10)Conc (M) -8): 271 and 366 | HRH4 dose-response raw reporter signal (Fig. 5b source data) ([2]; Log(10)Conc (M) -9): 318 and 324 | HRH4 dose-response raw reporter signal (Fig. 5b source data) ([2]; Log(10)Conc (M) -10): 271 and 230 | HRH4 dose-response raw reporter signal (Fig. 5b source data) ([2]; Log(10)Conc (M) -11): 342 and 265 | HRH4 dose-response raw reporter signal (Fig. 5b source data) ([2]; Log(10)Conc (M) -12): 298 and 248 | HRH4 dose-response raw reporter signal (Fig. 5b source data) ([2]; Log(10)Conc (M) -13): 318 and 271 | HRH4 dose-response raw reporter signal (Fig. 5b source data) ([2]; Log(10)Conc (M) -14): 374 and 307 | HRH4 dose-response raw reporter signal (Fig. 5b source data) ([2]; Log(10)Conc (M) -15): 242 and 254 | activity towards HRH4 ([2]; PRESTO-Tango dose-response): no activity | HRH2 dose-response raw reporter signal (Fig. 5b source data) ([3]; Log(10)Conc (M) -4): 68 and 65 and 32 | HRH2 dose-response raw reporter signal (Fig. 5b source data) ([3]; Log(10)Conc (M) -5): 50 and 41 and 77 | HRH2 dose-response raw reporter signal (Fig. 5b source data) ([3]; Log(10)Conc (M) -6): 59 and 62 and 44 | HRH2 dose-response raw reporter signal (Fig. 5b source data) ([3]; Log(10)Conc (M) -7): 27 and 50 and 35 | HRH2 dose-response raw reporter signal (Fig. 5b source data) ([3]; Log(10)Conc (M) -8): 65 and 80 and 47 | HRH2 dose-response raw reporter signal (Fig. 5b source data) ([3]; Log(10)Conc (M) -9): 38 and 97 and 71 | HRH2 dose-response raw reporter signal (Fig. 5b source data) ([3]; Log(10)Conc (M) -10): 50 (2×) and 62 | HRH2 dose-response raw reporter signal (Fig. 5b source data) ([3]; Log(10)Conc (M) -11): 56 and 27 and 53 | HRH2 dose-response raw reporter signal (Fig. 5b source data) ([3]; Log(10)Conc (M) -12): 53 and 35 and 24 | HRH2 dose-response raw reporter signal (Fig. 5b source data) ([3]; Log(10)Conc (M) -13): 59 and 53 and 35 | HRH2 dose-response raw reporter signal (Fig. 5b source data) ([3]; Log(10)Conc (M) -14): 71 and 53 (2×) | HRH2 dose-response raw reporter signal (Fig. 5b source data) ([3]; Log(10)Conc (M) -15): 29 and 15 and 32 | activity towards HRH2 ([3]; PRESTO-Tango dose-response): no activity | HRH3 dose-response raw reporter signal (Fig. 5b source data) ([4]; Log(10)Conc (M) -4): 162 and 59 and 171 | HRH3 dose-response raw reporter signal (Fig. 5b source data) ([4]; Log(10)Conc (M) -5): 94 and 85 and 156 | HRH3 dose-response raw reporter signal (Fig. 5b source data) ([4]; Log(10)Conc (M) -6): 136 and 91 and 133 | HRH3 dose-response raw reporter signal (Fig. 5b source data) ([4]; Log(10)Conc (M) -7): 124 and 91 and 106 | HRH3 dose-response raw reporter signal (Fig. 5b source data) ([4]; Log(10)Conc (M) -8): 133 and 85 and 109 | HRH3 dose-response raw reporter signal (Fig. 5b source data) ([4]; Log(10)Conc (M) -9): 165 and 142 and 209 | HRH3 dose-response raw reporter signal (Fig. 5b source data) ([4]; Log(10)Conc (M) -10): 200 and 100 and 109 | HRH3 dose-response raw reporter signal (Fig. 5b source data) ([4]; Log(10)Conc (M) -11): 133 and 100 and 147 | HRH3 dose-response raw reporter signal (Fig. 5b source data) ([4]; Log(10)Conc (M) -12): 115 (2×) and 142 | HRH3 dose-response raw reporter signal (Fig. 5b source data) ([4]; Log(10)Conc (M) -13): 139 and 91 and 133 | HRH3 dose-response raw reporter signal (Fig. 5b source data) ([4]; Log(10)Conc (M) -14): 127 and 83 and 121 | HRH3 dose-response raw reporter signal (Fig. 5b source data) ([4]; Log(10)Conc (M) -15): 112 and 91 and 62 | activity towards HRH3 ([4]; PRESTO-Tango dose-response): no activity | HRH1 dose-response raw reporter signal (Fig. 5b source data) ([5]; Log(10)Conc (M) -4): 49886 and 44465 | HRH1 dose-response raw reporter signal (Fig. 5b source data) ([5]; Log(10)Conc (M) -5): 46746 and 44008 | HRH1 dose-response raw reporter signal (Fig. 5b source data) ([5]; Log(10)Conc (M) -6): 46048 and 46004 | HRH1 dose-response raw reporter signal (Fig. 5b source data) ([5]; Log(10)Conc (M) -7): 45284 and 44521 | HRH1 dose-response raw reporter signal (Fig. 5b source data) ([5]; Log(10)Conc (M) -8): 43675 and 43707 | HRH1 dose-response raw reporter signal (Fig. 5b source data) ([5]; Log(10)Conc (M) -9): 43412 and 43896 | HRH1 dose-response raw reporter signal (Fig. 5b source data) ([5]; Log(10)Conc (M) -10): 42790 and 43339 | HRH1 dose-response raw reporter signal (Fig. 5b source data) ([5]; Log(10)Conc (M) -11): 45349 and 45281 | HRH1 dose-response raw reporter signal (Fig. 5b source data) ([5]; Log(10)Conc (M) -12): 45812 and 46139 | HRH1 dose-response raw reporter signal (Fig. 5b source data) ([5]; Log(10)Conc (M) -13): 46567 and 45803 | HRH1 dose-response raw reporter signal (Fig. 5b source data) ([5]; Log(10)Conc (M) -14): 45579 and 46637 | HRH1 dose-response raw reporter signal (Fig. 5b source data) ([5]; Log(10)Conc (M) -15): 40874 and 41360 | activity towards HRH1 ([5]; PRESTO-Tango dose-response): no activity | number of differentially regulated genes ([6]; one hour, vs DMSO, Padj < 0.05, abs(log2FC) > 1): 201 genes | effect on enterobactin BGC transcription ([6]; vs DMSO control, RNA-seq): increased enterobactin transcription levels
